Like-named read-outs stand apart in the source and are kept apart here.
Target: CK2 (Homo sapiens (Human), UniProt P68400)
Assay: Radiometric CK2 kinase assay
Assay type: biochemical
Details: for inhibition at 0.1 µM: compound at 0.10 μM; for inhibition at 1 µM: compound at 1 μM
[1] = inhibition of CK2 activity, ATP 10 μM

Chain of CK2 (P68400 whole entry): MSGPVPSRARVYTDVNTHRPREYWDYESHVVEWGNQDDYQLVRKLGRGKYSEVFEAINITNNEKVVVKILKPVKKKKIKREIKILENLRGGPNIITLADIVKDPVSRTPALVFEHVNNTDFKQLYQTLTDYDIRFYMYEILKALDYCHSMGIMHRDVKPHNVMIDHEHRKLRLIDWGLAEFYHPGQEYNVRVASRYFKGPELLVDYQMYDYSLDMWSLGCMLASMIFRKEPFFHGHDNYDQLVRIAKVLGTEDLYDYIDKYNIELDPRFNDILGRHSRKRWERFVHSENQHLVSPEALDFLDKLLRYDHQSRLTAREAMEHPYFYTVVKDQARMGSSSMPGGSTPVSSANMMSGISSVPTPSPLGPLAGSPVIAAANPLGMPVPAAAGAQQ

CC(C)COC(=O)c1[nH]c2ccc(F)cc2c1-c1cn(CC2CCN(CCNS(=O)(=O)c3ccc(-c4cn[nH]c4)cc3)CC2)nn1 [AB1032, isobutyl 3-(1-((1-(2-((4-(1H-pyrazol-4-yl)phenyl)sulfonamido)ethyl)piperidin-4-yl)methyl)-1H-1,2,3-triazol-4-yl)-5-fluoro-1H-indole-2-carboxylate]
IC50: 200 nM

CC(=O)c1[nH]c2ccc(F)cc2c1-c1cn(CC2CCN(CCNS(=O)(=O)c3ccc(-c4c(F)cccc4F)cc3)CC2)nn1 [AB1288, N-(2-(4-((4-(2-acetyl-5-fluoro-1H-indol-3-yl)-1H-1,2,3-triazol-1-yl)methyl)piperidin-1-yl)ethyl)-2′,6′-difluoro-[1,1′-biphenyl]-4-sulfonamide]
IC50: 78 nM

CC(=O)c1[nH]c2ccc(F)cc2c1-c1cn(CC2CCN(CCNS(=O)(=O)c3ccc(-c4c(C#N)cccc4C(F)(F)F)cc3)CC2)nn1 [AB1393, N-(2-(4-((4-(2-acetyl-5-fluoro-1H-indol-3-yl)-1H-1,2,3-triazol-1-yl)methyl)piperidin-1-yl)ethyl)-2′-cyano-6′-(trifluoromethyl)-[1,1′-biphenyl]-4-sulfonamide]
inhibition at 0.1 µM (ATP 10 μM): 31%

CCC(=O)c1[nH]c2ccc(F)cc2c1-c1cn(CC2CCN(CCNS(=O)(=O)Cc3ccc(C(F)(F)F)cc3)CC2)nn1 [AB1417, N-(2-(4-((4-(5-fluoro-2-propionyl-1H-indol-3-yl)-1H-1,2,3-triazol-1-yl)methyl)piperidin-1-yl)ethyl)-1-(4-(trifluoromethyl)phenyl)methanesulfonamide]
IC50 [1]: 120 nM

COCc1ccccc1-c1ccc(CN2CCC(Cn3cc(-c4c(C(=O)OCC(C)C)[nH]c5ccc(F)cc45)nn3)CC2)cc1Cl [AB680, Isobutyl 3-(1-((1-((2-chloro-2′-(methoxymethyl)-[1,1′-biphenyl]-4-yl)methyl)piperidin-4-yl)methyl)-1H-1,2,3-triazol-4-yl)-5-fluoro-1H-indole-2-carboxylate]
inhibition at 1 µM (ATP 10 μM): 11%

Cc1noc(C)c1-c1ccc(S(=O)(=O)NCCN2CCC(Cn3cc(-c4c(C(=O)OCC(C)C)[nH]c5ccc(F)cc45)nn3)CC2)cc1 [AB1130, isobutyl 3-(1-((1-(2-((4-(3,5-dimethylisoxazol-4-yl)phenyl)sulfonamido)ethyl)piperidin-4-yl)methyl)-1H-1,2,3-triazol-4-yl)-5-fluoro-1H-indole-2-carboxylate]
IC50: 49 nM

COc1ccc(C)cc1-c1ccc(CN2CCC(Cn3cc(-c4c(C(=O)OCC(C)C)[nH]c5ccc(F)cc45)nn3)CC2)cc1Cl [AB692]
inhibition at 1 µM (ATP 10 μM): 5%

CCC(=O)c1[nH]c2ccc(F)cc2c1-c1cn(CC2CCN(CCNS(=O)(=O)c3ccc(-c4c(O)cccc4F)cc3)CC2)nn1 [AB1415, 2′-fluoro-N-(2-(4-((4-(5-fluoro-2-propionyl-1H-indol-3-yl)-1H-1,2,3-triazol-1-yl)methyl)piperidin-1-yl)ethyl)-6′-hydroxy-[1,1′-biphenyl]-4-sulfonamide]
IC50: 50 nM

CC(C)COC(=O)c1[nH]c2ccc(Cl)cc2c1-c1cn(CC2CCN(CCNS(=O)(=O)c3ccc(Cl)cc3)CC2)nn1 [AB499, Isobutyl 5-chloro-3-(1-((1-(2-((4-chlorophenyl)sulfonamido)ethyl)piperidin-4-yl)methyl)-1H-1,2,3-triazol-4-yl)-1H-indole-2-carboxylate]
IC50: 670 nM

CCc1ccc(S(=O)(=O)NCCN2CCC(Cn3cc(-c4c(C(=O)OC(C)C)[nH]c5ccc(Cl)cc45)nn3)CC2)cc1 [AB578, Isopropyl 5-chloro-3-(1-((1-(2-((4-ethylphenyl)sulfonamido)ethyl)piperidin-4-yl)methyl)-1H-1,2,3-triazol-4-yl)-1H-indole-2-carboxylate]
IC50: 9200 nM

CC(C)COC(=O)c1[nH]c2ccc(F)cc2c1-c1cn(CC2CCN(CCNS(=O)(=O)c3ccc(Oc4ccccc4)cc3)CC2)nn1 [AB933, isobutyl 5-fluoro-3-(1-((1-(2-((4-phenoxyphenyl)sulfonamido)ethyl)piperidin-4-yl)methyl)-1H-1,2,3-triazol-4-yl)-1H-indole-2-carboxylate]
IC50 [1]: 62 nM

CC(C)Cc1ccc(S(=O)(=O)NCCN2CCC(Cn3cc(-c4c(C(=O)c5cccnc5)[nH]c5ccc(F)cc45)nn3)CC2)cc1 [AB1301, N-(2-(4-((4-(5-fluoro-2-nicotinoyl-1H-indol-3-yl)-1H-1,2,3-triazol-1-yl)methyl)piperidin-1-yl)ethyl)-4-isobutylbenzenesulfonamide]
inhibition at 0.1 µM (ATP 10 μM): 3%

CC(C)COC(=O)c1[nH]c2ccc(Cl)cc2c1-c1cn(CC2CCN(CCNS(=O)(=O)c3ccc(C(F)(F)F)cc3)CC2)nn1 [AB601, Isobutyl 5-chloro-3-(1-((1-(2-((4-(trifluoromethyl)phenyl)sulfonamido)ethyl)piperidin-4-yl)methyl)-1H-1,2,3-triazol-4-yl)-1H-indole-2-carboxylate]
IC50: 1400 nM

CC(=O)c1[nH]c2ccc(F)cc2c1-c1cn(CC2CCN(CCNS(=O)(=O)N3CCC(c4c(F)cccc4F)CC3)CC2)nn1 [AB1316, N-(2-(4-((4-(2-acetyl-5-fluoro-1H-indol-3-yl)-1H-1,2,3-triazol-1-yl)methyl)piperidin-1-yl)ethyl)-4-(2,6-difluorophenyl)piperidine-1-sulfonamide]
IC50 [1]: 280 nM

CCC(C)c1ccc(S(=O)(=O)NCCN2CCC(Cn3cc(-c4c(C(=O)OCC(C)C)[nH]c5ccc(F)cc45)nn3)CC2)cc1 (stereo not drawn) [AB931, isobutyl 3-(1-((1-(2-((4-(sec-butyl)phenyl)sulfonamido)ethyl)piperidin-4-yl)methyl)-1H-1,2,3-triazol-4-yl)-5-fluoro-1H-indole-2-carboxylate]
IC50 [1]: 100 nM

O=C(O)c1[nH]c2ccc(Cl)cc2c1-c1cn(CC2CCN(CCNS(=O)(=O)c3ccc(Cl)cc3)CC2)nn1 [AB201, 5-Chloro-3-(1-((1-(2-((4-chlorophenyl)sulfonamido)ethyl)piperidin-4-yl)methyl)-1H-1,2,3-triazol-4-yl)-1H-indole-2-carboxylic acid]
IC50 [1]: 10100 nM

O=C(c1[nH]c2ccc(F)cc2c1-c1cn(CC2CCN(CCNS(=O)(=O)N3CCC(c4c(F)cccc4F)CC3)CC2)nn1)C1CC1 [AB1304, N-(2-(4-((4-(2-(cyclopropanecarbonyl)-5-fluoro-1H-indol-3-yl)-1H-1,2,3-triazol-1-yl)methyl)piperidin-1-yl)ethyl)-4-(2,6-difluorophenyl)piperidine-1-sulfonamide]
IC50 [1]: 500 nM

CC(C)COC(=O)c1[nH]c2ccc(F)cc2c1-c1cn(CC2CCN(CCNS(=O)(=O)c3ccc(-c4ccccc4)cc3)CC2)nn1 [AB913, isobutyl 3-(1-((1-(2-([1,1′-biphenyl]-4-sulfonamido)ethyl)piperidin-4-yl)methyl)-1H-1,2,3-triazol-4-yl)-5-fluoro-1H-indole-2-carboxylate]
IC50: 80 nM

CCOC(=O)c1[nH]c2ccc(F)cc2c1-c1cn(CC2CCN(CCNS(=O)(=O)c3ccc(C)cc3)CC2)nn1 [AB504, Ethyl 5-fluoro-3-(1-((1-(2-((4-methylphenyl)sulfonamido)ethyl)piperidin-4-yl)methyl)-1H-1,2,3-triazol-4-yl)-1H-indole-2-carboxylate]
IC50: 1800 nM

CC(C)COC(=O)c1[nH]c2ccc(F)cc2c1-c1cn(CC2CCN(CCNS(=O)(=O)c3ccc4c(c3)CCC4)CC2)nn1 [AB932, isobutyl 3-(1-((1-(2-((2,3-dihydro-1H-indene)-5-sulfonamido)ethyl)piperidin-4-yl)methyl)-1H-1,2,3-triazol-4-yl)-5-fluoro-1H-indole-2-carboxylate]
IC50: 75 nM

CCOC(=O)c1[nH]c2ccc(F)cc2c1-c1cn(CC2CCN(CCNS(=O)(=O)c3ccc4ccccc4c3)CC2)nn1 [AB536, Ethyl 5-fluoro-3-(1-((1-(2-(naphthalene-2-sulfonamido)ethyl)piperidin-4-yl)methyl)-1H-1,2,3-triazol-4-yl)-1H-indole-2-carboxylate]
IC50: 800 nM

CCC(C)C(=O)c1[nH]c2ccc(F)cc2c1-c1cn(CC2CCN(CCNS(=O)(=O)c3ccc(CC(C)C)cc3)CC2)nn1 (stereo not drawn) [AB1302, N-(2-(4-((4-(5-fluoro-2-(2-methylbutanoyl)-1H-indol-3-yl)-1H-1,2,3-triazol-1-yl)methyl)piperidin-1-yl)ethyl)-4-isobutylbenzenesulfonamide]
inhibition at 0.1 µM (ATP 10 μM): 10%

CC(C)COC(=O)c1[nH]c2ccc(F)cc2c1-c1cn(CC2CCN(Cc3ccc(-c4ccc5c(c4)CCO5)c(Cl)c3)CC2)nn1 [AB731, Isobutyl 3-(1-((1-(3-chloro-4-(2,3-dihydrobenzofuran-5-yl)benzyl)piperidin-4-yl)methyl)-1H-1,2,3-triazol-4-yl)-5-fluoro-1H-indole-2-carboxylate]
inhibition at 1 µM (ATP 10 μM): 5%

O=C(O)c1[nH]c2cc(Cl)ccc2c1-c1cn(CC2CCN(CCNS(=O)(=O)c3ccc(Cl)cc3)CC2)nn1 [AB202, 6-Chloro-3-(1-((1-(2-((4-chlorophenyl)sulfonamido)ethyl)piperidin-4-yl)methyl)-1H-1,2,3-triazol-4-yl)-1H-indole-2-carboxylic acid]
IC50 [1]: 12100 nM

CC(C)COC(=O)c1[nH]c2ccc(F)cc2c1-c1cn(CC2CCN(S(=O)(=O)c3ccc4c(c3)OCC4)CC2)nn1 [AB939, isobutyl 3-(1-((1-((2,3-dihydrobenzofuran-6-yl)sulfonyl)piperidin-4-yl)methyl)-1H-1,2,3-triazol-4-yl)-5-fluoro-1H-indole-2-carboxylate]
inhibition at 1 µM (ATP 10 μM): 4%

CCOC(=O)c1[nH]c2cc(Cl)ccc2c1-c1cn(CC2CCN(CCNS(=O)(=O)c3ccc(C)cc3)CC2)nn1 [AB503, Ethyl 6-chloro-3-(1-((1-(2-((4-methylphenyl)sulfonamido)ethyl)piperidin-4-yl)methyl)-1H-1,2,3-triazol-4-yl)-1H-indole-2-carboxylate]
IC50: 9850 nM

CC(C)CCNC(=O)c1[nH]c2ccc(F)cc2c1-c1cn(CC2CCN(CCNS(=O)(=O)c3ccc(C(C)C)cc3)CC2)nn1 [AB671, 5-Fluoro-N-isopentyl-3-(1-((1-(2-((4-isopropylphenyl)sulfonamido)ethyl)piperidin-4-yl)methyl)-1H-1,2,3-triazol-4-yl)-1H-indole-2-carboxamide]
inhibition at 1 µM (ATP 10 μM): 18%

Source: patent publication US20230278983A1, “INDOLE DERIVATIVES AND USES THEREOF FOR TREATING A CANCER” (Universite Claude Bernard Lyon 1, priority 2020, published 2023)
